# Experimental data reported in publication PMC4685510, “A Cell Biologist’s Field Guide to Aurora Kinase Inhibitors” (Frontiers in Oncology, 2015).
# Legend:
# Assay in all cases: biochemical
# Format in all cases: biochemical
# [1] = biological target: T1, 363 human kinases (including Aurora A/B/C) (Homo sapiens, UniProt Q96PN8); settings: TSSK3/STK22C; for remaining activity at 0.1 µM: 100 nM; for remaining activity at 0.1 µM / remaining activity at 0.5 µM: read-out: % Enzyme Activity (relative to DMSO controls)
# T1 sequence (Q96PN8 1-268): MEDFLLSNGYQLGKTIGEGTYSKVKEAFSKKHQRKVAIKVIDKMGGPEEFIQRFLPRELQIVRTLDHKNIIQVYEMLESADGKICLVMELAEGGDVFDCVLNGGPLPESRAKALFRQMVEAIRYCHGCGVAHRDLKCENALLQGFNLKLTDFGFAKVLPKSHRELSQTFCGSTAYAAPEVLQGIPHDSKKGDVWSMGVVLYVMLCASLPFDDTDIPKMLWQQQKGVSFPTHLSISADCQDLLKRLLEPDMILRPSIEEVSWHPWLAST
# Source text: (§1) However, the Aurora A/B selectivity ratios derived from our in vitro and in vivo data can be compared to prioritize inhibitors.
# [2] = biological target: 363 human kinases (including Aurora A/B/C) (Homo sapiens, UniProt P54756); settings: EPHA5, [ATP] 30 µM; for remaining activity at 0.1 µM: 100 nM; for remaining activity at 0.1 µM / remaining activity at 0.5 µM: read-out: % Enzyme Activity (relative to DMSO controls)
# Source text: as §1
# [3] = biological target: 363 human kinases (including Aurora A/B/C) (Homo sapiens, UniProt Q9H4A3); settings: WNK1; for remaining activity at 0.1 µM: 100 nM; for remaining activity at 0.1 µM / remaining activity at 0.5 µM: read-out: % Enzyme Activity (relative to DMSO controls)
# Source text: as §1
# [4] = biological target: 363 human kinases (including Aurora A/B/C) (Homo sapiens, UniProt O95819); settings: HGK/MAP4K4; for remaining activity at 0.1 µM: 100 nM; for remaining activity at 0.1 µM / remaining activity at 0.5 µM: read-out: % Enzyme Activity (relative to DMSO controls)
# Source text: as §1
# [5] = biological target: T2, 363 human kinases (including Aurora A/B/C) (Homo sapiens, UniProt Q15835); settings: GRK1; for remaining activity at 0.1 µM: 100 nM; for remaining activity at 0.1 µM / remaining activity at 0.5 µM: read-out: % Enzyme Activity (relative to DMSO controls)
# T2 sequence (Q15835 1-563): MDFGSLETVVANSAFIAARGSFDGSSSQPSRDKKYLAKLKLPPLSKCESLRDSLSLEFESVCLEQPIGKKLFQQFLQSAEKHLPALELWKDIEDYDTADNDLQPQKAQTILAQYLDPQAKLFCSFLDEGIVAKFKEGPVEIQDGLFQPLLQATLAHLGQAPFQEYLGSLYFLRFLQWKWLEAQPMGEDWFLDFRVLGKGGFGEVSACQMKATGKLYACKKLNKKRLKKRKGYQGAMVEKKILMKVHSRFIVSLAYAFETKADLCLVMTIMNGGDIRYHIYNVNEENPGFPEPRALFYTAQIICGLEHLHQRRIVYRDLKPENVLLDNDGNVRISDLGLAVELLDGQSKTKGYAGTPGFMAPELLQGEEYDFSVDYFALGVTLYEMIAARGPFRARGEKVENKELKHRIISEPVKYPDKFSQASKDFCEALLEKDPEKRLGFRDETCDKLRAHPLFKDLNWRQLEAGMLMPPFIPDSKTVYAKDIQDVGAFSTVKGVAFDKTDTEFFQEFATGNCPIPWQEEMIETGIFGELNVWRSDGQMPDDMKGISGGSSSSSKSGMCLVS
# Source text: as §1
# [6] = biological target: 363 human kinases (including Aurora A/B/C) (Homo sapiens, UniProt Q16620); settings: TRKB; for remaining activity at 0.1 µM: 100 nM
# Source text: as §1
# [7] = biological target: T3, 363 human kinases (including Aurora A/B/C) (Homo sapiens, UniProt P51955); settings: NEK2; for remaining activity at 0.1 µM: 100 nM; for remaining activity at 0.1 µM / remaining activity at 0.5 µM: read-out: % Enzyme Activity (relative to DMSO controls)
# T3 sequence (P51955 1-445): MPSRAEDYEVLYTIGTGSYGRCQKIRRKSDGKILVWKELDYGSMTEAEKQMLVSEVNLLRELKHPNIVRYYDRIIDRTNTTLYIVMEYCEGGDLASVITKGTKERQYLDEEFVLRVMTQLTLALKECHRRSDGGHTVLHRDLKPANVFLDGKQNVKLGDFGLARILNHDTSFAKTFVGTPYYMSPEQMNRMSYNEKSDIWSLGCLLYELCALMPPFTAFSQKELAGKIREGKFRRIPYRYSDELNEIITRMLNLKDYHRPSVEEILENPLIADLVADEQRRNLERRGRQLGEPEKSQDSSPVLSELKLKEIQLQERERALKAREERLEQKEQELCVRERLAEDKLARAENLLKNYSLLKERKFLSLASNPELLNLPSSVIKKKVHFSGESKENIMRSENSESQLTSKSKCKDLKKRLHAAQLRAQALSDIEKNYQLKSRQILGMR
# Source text: as §1
# [8] = biological target: 363 human kinases (including Aurora A/B/C) (Homo sapiens, UniProt P04049); settings: RAF1; for remaining activity at 0.1 µM: 100 nM; for remaining activity at 0.1 µM / remaining activity at 0.5 µM: read-out: % Enzyme Activity (relative to DMSO controls)
# Source text: as §1
# [9] = biological target: 363 human kinases (including Aurora A/B/C) (Homo sapiens, UniProt Q16288); settings: TRKC; for remaining activity at 0.1 µM: 100 nM
# Source text: as §1
# [10] = biological target: T4, 363 human kinases (including Aurora A/B/C) (Homo sapiens, UniProt O14920); settings: IKKb/IKBKB; for remaining activity at 0.1 µM: 100 nM; for remaining activity at 0.1 µM / remaining activity at 0.5 µM: read-out: % Enzyme Activity (relative to DMSO controls)
# T4 sequence (O14920 1-756): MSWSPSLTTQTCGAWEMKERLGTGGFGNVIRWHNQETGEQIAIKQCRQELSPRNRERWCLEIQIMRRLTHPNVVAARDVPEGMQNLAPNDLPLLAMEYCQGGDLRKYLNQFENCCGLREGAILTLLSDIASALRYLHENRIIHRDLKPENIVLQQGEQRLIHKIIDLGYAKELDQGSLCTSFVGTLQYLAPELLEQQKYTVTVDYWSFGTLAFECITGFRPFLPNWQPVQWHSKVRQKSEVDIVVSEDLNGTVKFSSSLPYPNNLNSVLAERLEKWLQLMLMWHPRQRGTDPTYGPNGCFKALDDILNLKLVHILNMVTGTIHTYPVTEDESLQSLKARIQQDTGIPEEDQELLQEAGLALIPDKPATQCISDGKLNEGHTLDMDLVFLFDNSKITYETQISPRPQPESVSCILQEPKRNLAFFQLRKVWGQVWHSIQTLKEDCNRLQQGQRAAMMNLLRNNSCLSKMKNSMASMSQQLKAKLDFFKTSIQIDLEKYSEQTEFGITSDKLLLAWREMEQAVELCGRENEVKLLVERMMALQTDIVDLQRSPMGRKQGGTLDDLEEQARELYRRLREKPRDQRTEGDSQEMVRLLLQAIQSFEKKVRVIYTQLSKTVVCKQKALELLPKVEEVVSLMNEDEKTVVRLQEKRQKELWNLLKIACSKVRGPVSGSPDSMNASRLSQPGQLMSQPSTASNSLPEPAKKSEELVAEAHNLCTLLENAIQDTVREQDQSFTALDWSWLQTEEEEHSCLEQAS
# Source text: as §1
# [11] = biological target: 363 human kinases (including Aurora A/B/C) (Homo sapiens, UniProt P29597); settings: TYK2; for remaining activity at 0.1 µM: 100 nM; for remaining activity at 0.1 µM / remaining activity at 0.5 µM: read-out: % Enzyme Activity (relative to DMSO controls)
# Source text: as §1
# [12] = biological target: 363 human kinases (including Aurora A/B/C) (Homo sapiens, UniProt Q14289); settings: PYK2; for remaining activity at 0.1 µM: 100 nM; for remaining activity at 0.1 µM / remaining activity at 0.5 µM: read-out: % Enzyme Activity (relative to DMSO controls)
# Source text: as §1
# [13] = read-out: % Enzyme Activity (relative to DMSO controls)
# [14] = 500 nM, read-out: % Enzyme Activity (relative to DMSO controls)
# Chain of 363 human kinases (including Aurora A/B/C) (Homo sapiens, UniProt Q14289) (Q14289 whole entry): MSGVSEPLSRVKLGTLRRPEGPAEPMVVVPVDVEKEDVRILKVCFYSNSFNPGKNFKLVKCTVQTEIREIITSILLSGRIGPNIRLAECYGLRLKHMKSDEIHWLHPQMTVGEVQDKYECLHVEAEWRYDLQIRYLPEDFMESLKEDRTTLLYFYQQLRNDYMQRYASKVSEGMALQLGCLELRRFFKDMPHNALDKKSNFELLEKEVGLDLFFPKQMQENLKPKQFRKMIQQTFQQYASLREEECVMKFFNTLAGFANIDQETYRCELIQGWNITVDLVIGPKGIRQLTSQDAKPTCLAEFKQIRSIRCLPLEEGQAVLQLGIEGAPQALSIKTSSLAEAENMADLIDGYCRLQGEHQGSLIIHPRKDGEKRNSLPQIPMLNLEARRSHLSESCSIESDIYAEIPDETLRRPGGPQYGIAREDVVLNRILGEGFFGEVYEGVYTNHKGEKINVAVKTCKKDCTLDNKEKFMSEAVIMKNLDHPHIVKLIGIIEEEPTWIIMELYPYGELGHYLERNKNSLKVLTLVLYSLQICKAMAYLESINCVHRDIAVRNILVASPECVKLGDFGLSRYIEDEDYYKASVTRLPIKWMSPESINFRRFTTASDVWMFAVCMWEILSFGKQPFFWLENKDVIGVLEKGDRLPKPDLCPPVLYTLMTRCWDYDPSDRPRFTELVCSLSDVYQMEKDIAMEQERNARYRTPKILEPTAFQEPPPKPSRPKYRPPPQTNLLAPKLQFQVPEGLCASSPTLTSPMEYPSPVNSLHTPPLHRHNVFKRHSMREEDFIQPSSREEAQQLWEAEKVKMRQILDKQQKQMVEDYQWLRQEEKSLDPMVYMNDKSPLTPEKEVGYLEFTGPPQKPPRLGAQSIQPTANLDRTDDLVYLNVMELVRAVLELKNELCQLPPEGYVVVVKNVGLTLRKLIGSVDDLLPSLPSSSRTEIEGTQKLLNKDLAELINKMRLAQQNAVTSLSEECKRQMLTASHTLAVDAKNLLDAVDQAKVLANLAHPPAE
# Chain of 363 human kinases (including Aurora A/B/C) (Homo sapiens, UniProt P04049) (P04049 whole entry): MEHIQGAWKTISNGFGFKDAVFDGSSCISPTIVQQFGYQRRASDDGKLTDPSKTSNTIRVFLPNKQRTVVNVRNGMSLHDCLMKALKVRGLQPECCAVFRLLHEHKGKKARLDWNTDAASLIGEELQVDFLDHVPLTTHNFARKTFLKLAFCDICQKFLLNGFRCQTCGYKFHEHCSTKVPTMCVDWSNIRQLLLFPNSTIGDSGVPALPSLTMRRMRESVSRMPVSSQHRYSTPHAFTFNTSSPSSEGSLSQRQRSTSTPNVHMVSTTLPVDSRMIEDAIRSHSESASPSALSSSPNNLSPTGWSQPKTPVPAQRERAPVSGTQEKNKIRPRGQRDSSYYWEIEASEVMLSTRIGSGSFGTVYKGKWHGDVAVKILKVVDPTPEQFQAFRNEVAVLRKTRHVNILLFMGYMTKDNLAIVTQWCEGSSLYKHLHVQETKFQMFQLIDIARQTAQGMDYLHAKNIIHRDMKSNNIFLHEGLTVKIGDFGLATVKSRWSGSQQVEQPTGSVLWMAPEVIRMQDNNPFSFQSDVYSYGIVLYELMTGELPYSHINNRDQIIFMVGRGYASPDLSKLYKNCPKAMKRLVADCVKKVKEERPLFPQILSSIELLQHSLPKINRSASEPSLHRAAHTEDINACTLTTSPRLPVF
# Chain of 363 human kinases (including Aurora A/B/C) (Homo sapiens, UniProt P54756) (P54756 25-1037): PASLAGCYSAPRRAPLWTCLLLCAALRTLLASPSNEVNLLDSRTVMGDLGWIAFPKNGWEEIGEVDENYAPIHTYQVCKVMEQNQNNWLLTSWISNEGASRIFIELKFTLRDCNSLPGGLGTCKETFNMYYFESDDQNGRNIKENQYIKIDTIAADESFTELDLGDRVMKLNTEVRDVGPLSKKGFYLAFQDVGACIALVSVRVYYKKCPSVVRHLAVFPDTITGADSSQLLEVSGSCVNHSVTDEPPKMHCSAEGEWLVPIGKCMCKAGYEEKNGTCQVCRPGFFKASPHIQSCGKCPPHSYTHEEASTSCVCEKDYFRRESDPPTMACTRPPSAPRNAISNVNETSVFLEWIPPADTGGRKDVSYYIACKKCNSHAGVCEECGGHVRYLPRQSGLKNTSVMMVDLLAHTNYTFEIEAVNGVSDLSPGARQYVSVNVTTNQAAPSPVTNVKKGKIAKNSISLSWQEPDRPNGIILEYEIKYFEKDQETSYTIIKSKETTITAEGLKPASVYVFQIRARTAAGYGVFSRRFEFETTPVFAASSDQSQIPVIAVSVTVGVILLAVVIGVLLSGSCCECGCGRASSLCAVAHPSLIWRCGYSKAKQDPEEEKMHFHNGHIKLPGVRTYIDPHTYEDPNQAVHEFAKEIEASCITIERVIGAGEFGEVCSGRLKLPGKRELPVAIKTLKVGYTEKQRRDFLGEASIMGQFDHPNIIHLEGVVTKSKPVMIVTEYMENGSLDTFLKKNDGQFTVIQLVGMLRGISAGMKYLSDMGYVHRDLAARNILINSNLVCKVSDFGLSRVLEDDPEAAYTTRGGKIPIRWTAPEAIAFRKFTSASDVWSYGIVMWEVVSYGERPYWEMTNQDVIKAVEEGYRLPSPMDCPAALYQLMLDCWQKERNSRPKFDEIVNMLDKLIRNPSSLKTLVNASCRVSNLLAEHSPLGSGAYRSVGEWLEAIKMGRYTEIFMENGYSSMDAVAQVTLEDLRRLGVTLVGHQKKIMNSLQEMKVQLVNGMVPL
# Chain of 363 human kinases (including Aurora A/B/C) (Homo sapiens, UniProt P29597) (P29597 whole entry): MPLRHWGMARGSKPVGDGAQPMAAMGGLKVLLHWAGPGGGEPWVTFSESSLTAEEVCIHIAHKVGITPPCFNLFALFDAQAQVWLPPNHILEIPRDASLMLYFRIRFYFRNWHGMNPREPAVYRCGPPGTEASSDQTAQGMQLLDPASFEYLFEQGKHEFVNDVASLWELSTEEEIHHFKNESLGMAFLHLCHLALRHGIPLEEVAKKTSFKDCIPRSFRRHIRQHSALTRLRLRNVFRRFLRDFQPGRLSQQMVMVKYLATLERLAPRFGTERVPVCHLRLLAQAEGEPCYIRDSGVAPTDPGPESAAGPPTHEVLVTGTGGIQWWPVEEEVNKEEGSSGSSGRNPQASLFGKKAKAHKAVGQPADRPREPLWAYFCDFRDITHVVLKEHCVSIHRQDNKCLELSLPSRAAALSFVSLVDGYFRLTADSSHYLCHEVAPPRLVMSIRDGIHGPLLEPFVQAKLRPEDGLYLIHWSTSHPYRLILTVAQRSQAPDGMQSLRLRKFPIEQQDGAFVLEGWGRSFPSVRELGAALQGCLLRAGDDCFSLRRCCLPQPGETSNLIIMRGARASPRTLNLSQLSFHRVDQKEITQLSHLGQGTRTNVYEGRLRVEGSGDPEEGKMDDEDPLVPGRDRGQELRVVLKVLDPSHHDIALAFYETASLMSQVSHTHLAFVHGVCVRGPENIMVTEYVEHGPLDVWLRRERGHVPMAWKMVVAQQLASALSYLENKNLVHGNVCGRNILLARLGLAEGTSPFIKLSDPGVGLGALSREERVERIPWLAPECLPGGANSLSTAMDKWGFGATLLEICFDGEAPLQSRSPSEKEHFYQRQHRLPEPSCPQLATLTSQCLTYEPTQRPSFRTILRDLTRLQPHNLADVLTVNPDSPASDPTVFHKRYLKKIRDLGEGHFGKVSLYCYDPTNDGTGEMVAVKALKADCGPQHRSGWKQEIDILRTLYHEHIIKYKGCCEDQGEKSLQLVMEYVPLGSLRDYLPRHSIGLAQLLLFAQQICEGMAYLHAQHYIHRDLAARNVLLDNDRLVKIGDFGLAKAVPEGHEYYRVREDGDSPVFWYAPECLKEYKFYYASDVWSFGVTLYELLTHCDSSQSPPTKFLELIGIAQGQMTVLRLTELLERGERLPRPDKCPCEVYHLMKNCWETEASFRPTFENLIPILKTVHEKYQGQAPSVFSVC
# Chain of 363 human kinases (including Aurora A/B/C) (Homo sapiens, UniProt O95819) (O95819 whole entry): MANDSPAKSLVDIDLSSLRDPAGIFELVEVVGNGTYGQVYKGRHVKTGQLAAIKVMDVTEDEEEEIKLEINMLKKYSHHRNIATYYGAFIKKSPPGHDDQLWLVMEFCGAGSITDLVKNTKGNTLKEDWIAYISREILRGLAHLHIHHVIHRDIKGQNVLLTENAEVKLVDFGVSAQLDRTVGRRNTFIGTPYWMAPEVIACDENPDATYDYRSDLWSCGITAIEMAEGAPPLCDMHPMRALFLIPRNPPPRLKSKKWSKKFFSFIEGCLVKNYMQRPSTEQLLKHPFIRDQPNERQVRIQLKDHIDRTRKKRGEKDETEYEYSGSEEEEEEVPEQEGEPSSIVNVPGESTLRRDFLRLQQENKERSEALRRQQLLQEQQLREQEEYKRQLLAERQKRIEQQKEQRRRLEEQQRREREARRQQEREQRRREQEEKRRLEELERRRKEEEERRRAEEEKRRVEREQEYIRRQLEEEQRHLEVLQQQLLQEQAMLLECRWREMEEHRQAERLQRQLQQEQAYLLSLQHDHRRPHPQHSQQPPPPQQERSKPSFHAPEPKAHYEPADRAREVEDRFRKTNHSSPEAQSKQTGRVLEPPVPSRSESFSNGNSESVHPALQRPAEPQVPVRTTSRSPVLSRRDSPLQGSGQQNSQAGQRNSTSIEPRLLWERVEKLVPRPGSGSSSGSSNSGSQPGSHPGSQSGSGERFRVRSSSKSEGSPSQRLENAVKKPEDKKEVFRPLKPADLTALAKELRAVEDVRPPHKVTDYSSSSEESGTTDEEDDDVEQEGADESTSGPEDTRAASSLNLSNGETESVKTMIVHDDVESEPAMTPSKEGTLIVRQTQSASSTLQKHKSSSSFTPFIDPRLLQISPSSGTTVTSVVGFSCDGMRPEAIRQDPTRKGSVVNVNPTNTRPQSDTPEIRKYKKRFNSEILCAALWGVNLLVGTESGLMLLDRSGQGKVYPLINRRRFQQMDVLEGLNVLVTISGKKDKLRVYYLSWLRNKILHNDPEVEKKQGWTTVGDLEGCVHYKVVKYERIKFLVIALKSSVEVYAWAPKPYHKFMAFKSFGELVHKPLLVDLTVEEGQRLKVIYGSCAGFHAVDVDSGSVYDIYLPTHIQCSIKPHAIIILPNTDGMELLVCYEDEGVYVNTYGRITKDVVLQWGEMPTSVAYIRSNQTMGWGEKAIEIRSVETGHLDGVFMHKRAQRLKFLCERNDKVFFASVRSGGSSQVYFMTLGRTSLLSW
SMILES,remaining activity at 0.1 µM [1] [%],remaining activity at 0.1 µM [2] [%],remaining activity at 0.1 µM [3] [%],remaining activity at 0.1 µM [4] [%],remaining activity at 0.1 µM [5] [%],"remaining activity at 0.1 µM [6, 13] [%]",remaining activity at 0.1 µM [7] [%],remaining activity at 0.1 µM [8] [%],"remaining activity at 0.1 µM [9, 13] [%]",remaining activity at 0.1 µM [10] [%],remaining activity at 0.1 µM [11] [%],remaining activity at 0.1 µM [12] [%],remaining activity at 0.5 µM ([1]; 500 nM) [%],remaining activity at 0.5 µM ([2]; 500 nM) [%],remaining activity at 0.5 µM ([3]; 500 nM) [%],remaining activity at 0.5 µM ([4]; 500 nM) [%],remaining activity at 0.5 µM ([5]; 500 nM) [%],remaining activity at 0.5 µM ([7]; 500 nM) [%],remaining activity at 0.5 µM ([8]; 500 nM) [%],remaining activity at 0.5 µM ([10]; 500 nM) [%],further results
CCn1cc(-c2ccnc3[nH]c(-c4cccc(CN(C)C)c4)cc23)c(-c2ccc(NC(=O)N(C)C)cc2)n1 [GSK1070916],83,101,84.3,87.5,95.1,108,110,100,78.6,126,87,95.3,–,–,–,–,–,–,–,–,–
O=C(O)[C@]1(Cc2cccc(Nc3nccs3)n2)CC[C@@H](Oc2cccc(Cl)c2F)CC1 [MK-5108],101,48.6,94,95.5,99,1.79,84.3,97.7,0.99,103,52.3,41.2,91.3,24.4,86.4,72.9,106,105,94.8,128,remaining activity at 0.5 µM ([11]; 500 nM): 17%; remaining activity at 0.5 µM ([12]; 500 nM): 16.4%
O=C(c1cccc(Cl)c1F)N1CCN(Cc2cccc(Nc3nccs3)n2)CC1 [MK-8745],–,–,–,–,–,–,–,–,–,–,–,–,95.9,84.2,91.3,89.1,101,104,95.6,119,"% Enzyme Activity (relative to DMSO controls) ([1]; 500 nM): 94.05%; % Enzyme Activity (relative to DMSO controls) ([2]; 500 nM): 84.08%; % Enzyme Activity (relative to DMSO controls) ([3]; 500 nM): 90.95%; % Enzyme Activity (relative to DMSO controls) ([4]; 500 nM): 88.10%; % Enzyme Activity (relative to DMSO controls) ([5]; 500 nM): 98.09%; % Enzyme Activity (relative to DMSO controls) ([6]; 500 nM): 8.70%; remaining activity at 0.5 µM [6, 14]: 9.04%; % Enzyme Activity (relative to DMSO controls) ([7]; 500 nM): 103.20%; % Enzyme Activity (relative to DMSO controls) ([8]; 500 nM): 93.98%; % Enzyme Activity (relative to DMSO controls) ([9]; 500 nM): 3.01%; remaining activity at 0.5 µM [9, 14]: 3.12%; % Enzyme Activity (relative to DMSO controls) ([10]; 500 nM): 112.10%; % Enzyme Activity (relative to DMSO controls) ([11]; 500 nM): 67.55%; remaining activity at 0.5 µM ([11]; 500 nM): 67.8%; % Enzyme Activity (relative to DMSO controls) ([12]; 500 nM): 80.17%; remaining activity at 0.5 µM ([12]; 500 nM): 83.5%"
